# Results from article PMC4303209, “A novel phosphatidylinositol 3-kinase (PI3K) inhibitor directs a potent FOXO-dependent, p53-independent cell cycle arrest phenotype characterized by the differential induction of a subset of FOXO-regulated genes” (Breast Cancer Research : BCR, 2014).
# Test system: MCF-7 breast cancer cells
# Assay: Microarray gene expression analysis (Agilent whole human genome 4 x 44K; compound vs DMSO, LIMMA log2 fold change)
# Type: cell-based
# Conditions: Apoptosis genes
smiles,measurement,setting,value
Oc1cccc(-c2nc(N3CCOCC3)c3oc4ncccc4c3n2)c1 [PI-103],CTNNA1 log2FC,Gene 1495,0.421
same,CTNNB1 log2FC,Gene 1499,0.098
same,CTSB log2FC,Gene 1508,0.047
same,CTSH log2FC,Gene 1512,-0.000676
same,CTSL log2FC,Gene 1514,0.329
same,CX3CR1 log2FC,Gene 1524,0.187
same,CYLD log2FC,Gene 1540,0.377
same,DAB2 log2FC,Gene 1601,-0.118
same,DAD1 log2FC,Gene 1603,-0.506
same,DAP log2FC,Gene 1611,-0.163
same,DAPK1 log2FC,Gene 1612,0.477
same,DAPK3 log2FC,Gene 1613,-0.075
same,DBH log2FC,Gene 1621,-0.084
same,DCC log2FC,Gene 1630,-0.032
same,GADD45A log2FC,Gene 1647,-0.795
same,DDIT3 log2FC,Gene 1649,2.078
same,DDX3X log2FC,Gene 1654,-1.134
same,DDX5 log2FC,Gene 1655,-1.225
same,DFFA log2FC,Gene 1676,-0.256
same,DFNA5 log2FC,Gene 1687,-0.030
same,DHCR24 log2FC,Gene 1718,-0.730
same,DHODH log2FC,Gene 1723,-0.198
same,NQO1 log2FC,Gene 1728,-0.052
same,DLX1 log2FC,Gene 1745,-0.636
same,DNASE1 log2FC,Gene 1773,0.269
same,DNASE1L3 log2FC,Gene 1776,-0.152
same,DNASE2 log2FC,Gene 1777,0.667
same,DOCK1 log2FC,Gene 1793,0.305
same,DPEP1 log2FC,Gene 1800,0.033
same,ATN1 log2FC,Gene 1822,-0.173
same,DSG1 log2FC,Gene 1828,-0.439
same,DSG2 log2FC,Gene 1829,0.213
same,DSG3 log2FC,Gene 1830,-0.053
same,TSC22D3 log2FC,Gene 1831,0.499
same,DSP log2FC,Gene 1832,0.622
same,DUSP1 log2FC,Gene 1843,-0.801
same,DUSP2 log2FC,Gene 1844,-2.156
same,DUSP6 log2FC,Gene 1848,-1.955
same,E2F1 log2FC,Gene 1869,-0.119
same,E2F2 log2FC,Gene 1870,-0.377
same,ECT2 log2FC,Gene 1894,0.836
same,EDN1 log2FC,Gene 1906,0.126
same,EDNRA log2FC,Gene 1909,0.064
same,EDNRB log2FC,Gene 1910,-0.042
same,EEF1A2 log2FC,Gene 1917,0.203
same,EFNA5 log2FC,Gene 1946,-0.125
same,EGFR log2FC,Gene 1956,0.479
same,EGR1 log2FC,Gene 1958,-2.608
same,EGR2 log2FC,Gene 1959,-0.367
same,EPHA2 log2FC,Gene 1969,-1.806
same,EIF5A log2FC,Gene 1984,-0.261
same,ENDOG log2FC,Gene 2021,-0.245
same,EP300 log2FC,Gene 2033,-0.124
same,EPHA7 log2FC,Gene 2045,-0.025
same,CLN8 log2FC,Gene 2055,-0.236
same,EPO log2FC,Gene 2056,-0.136
same,ERBB3 log2FC,Gene 2065,0.809
same,ERBB4 log2FC,Gene 2066,0.106
same,ERCC2 log2FC,Gene 2068,-0.269
same,ERCC3 log2FC,Gene 2071,-0.108
same,ERCC5 log2FC,Gene 2073,0.823
same,ERCC6 log2FC,Gene 2074,0.488
same,ERN1 log2FC,Gene 2081,-0.108
same,ESR1 log2FC,Gene 2099,-0.048
same,ESR2 log2FC,Gene 2100,-0.062
same,ETS1 log2FC,Gene 2113,-0.820
same,EYA2 log2FC,Gene 2139,-0.257
same,F2R log2FC,Gene 2149,0.377
same,F3 log2FC,Gene 2152,-0.177
same,PTK2B log2FC,Gene 2185,0.175
same,FCER1G log2FC,Gene 2207,-0.541
same,FGD1 log2FC,Gene 2245,-0.255
same,FGF4 log2FC,Gene 2249,0.019
same,FGF8 log2FC,Gene 2253,-0.135
same,FGF10 log2FC,Gene 2255,-0.00185
same,FGFR1 log2FC,Gene 2260,-0.374
same,FGFR3 log2FC,Gene 2261,-0.164
same,FGFR2 log2FC,Gene 2263,1.806
same,FHIT log2FC,Gene 2272,-0.336
same,FHL2 log2FC,Gene 2274,-0.078
same,FOXC1 log2FC,Gene 2296,-0.767
same,FOXC2 log2FC,Gene 2303,-0.284
same,FLT3 log2FC,Gene 2322,0.120
same,FLT4 log2FC,Gene 2324,-0.157
same,FNTA log2FC,Gene 2339,0.629
same,FXN log2FC,Gene 2395,-0.514
same,FRZB log2FC,Gene 2487,0.040
same,FYN log2FC,Gene 2534,0.082
same,G6PD log2FC,Gene 2539,-0.156
same,GABRA5 log2FC,Gene 2558,-0.0016
same,GABRB2 log2FC,Gene 2561,-0.080
same,GABRB3 log2FC,Gene 2562,-0.025
same,GAS1 log2FC,Gene 2619,0.756
same,GAS2 log2FC,Gene 2620,0.149
same,GATA1 log2FC,Gene 2623,-0.018
same,GATA3 log2FC,Gene 2625,-0.114
same,GDNF log2FC,Gene 2668,-0.175
same,B4GALT1 log2FC,Gene 2683,0.192
same,GJA1 log2FC,Gene 2697,-0.613
same,GCLC log2FC,Gene 2729,0.812
same,GLI3 log2FC,Gene 2737,0.540
same,GLO1 log2FC,Gene 2739,-0.070
same,GML log2FC,Gene 2765,-0.071
same,GNB1 log2FC,Gene 2782,-0.085
same,GNGT1 log2FC,Gene 2792,-0.037
same,GNRH1 log2FC,Gene 2796,0.097
same,SFN log2FC,Gene 2810,-1.150
same,GPLD1 log2FC,Gene 2822,-0.157
same,CXCR3 log2FC,Gene 2833,-0.474
same,GRK5 log2FC,Gene 2869,-0.059
same,MKNK2 log2FC,Gene 2872,-0.826
same,GPX1 log2FC,Gene 2876,0.431
same,GRID2 log2FC,Gene 2895,-0.052
same,GRIK2 log2FC,Gene 2898,0.091
same,GRIK5 log2FC,Gene 2901,-0.101
same,GRIN1 log2FC,Gene 2902,-0.444
same,GRIN2A log2FC,Gene 2903,-0.041
same,NR3C1 log2FC,Gene 2908,1.042
same,GRM4 log2FC,Gene 2914,-0.029
same,PDIA3 log2FC,Gene 2923,-0.085
same,GSK3A log2FC,Gene 2931,-0.030
same,GSK3B log2FC,Gene 2932,-0.455
same,GSN log2FC,Gene 2934,0.174
same,GSTP1 log2FC,Gene 2950,0.117
same,MSH6 log2FC,Gene 2956,-0.075
same,GZMH log2FC,Gene 2999,-0.148
same,GZMA log2FC,Gene 3001,-0.034
same,GZMB log2FC,Gene 3002,-0.002
same,GZMM log2FC,Gene 3004,-0.381
same,H1F0 log2FC,Gene 3005,0.834
same,HCK log2FC,Gene 3055,-0.033
same,HDAC1 log2FC,Gene 3065,-0.547
same,HDAC2 log2FC,Gene 3066,0.060
same,HELLS log2FC,Gene 3070,0.140
same,NCKAP1L log2FC,Gene 3071,0.054
same,HGF log2FC,Gene 3082,-0.198
same,NRG1 log2FC,Gene 3084,-1.164
same,HIC1 log2FC,Gene 3090,-0.122
same,HIF1A log2FC,Gene 3091,0.019
same,HIP1 log2FC,Gene 3092,-0.167
same,HINT1 log2FC,Gene 3094,0.210
same,HK2 log2FC,Gene 3099,-1.428
same,HMGB1 log2FC,Gene 3146,0.343
same,HMGB2 log2FC,Gene 3148,1.070
same,HMGCR log2FC,Gene 3156,0.051
same,HMOX1 log2FC,Gene 3162,1.050
same,NR4A1 log2FC,Gene 3164,-0.484
same,HOXA5 log2FC,Gene 3202,0.436
same,HOXA13 log2FC,Gene 3209,0.042
same,HRAS log2FC,Gene 3265,-0.758
same,HRG log2FC,Gene 3273,-0.015
same,PRMT2 log2FC,Gene 3275,0.289
same,HSPA1A log2FC,Gene 3303,-2.361
same,HSPA5 log2FC,Gene 3309,-0.793
same,HSPB1 log2FC,Gene 3315,-0.135
same,HSP90AA1 log2FC,Gene 3320,0.717
same,HSP90AB1 log2FC,Gene 3326,-0.430
